According to ChEMBL document CHEMBL1129456, “Synthesis and evaluation of two positron-labeled nitric oxide synthase inhibitors, S-[11C]methylisothiourea and S-(2-[18F]fluoroethyl)isothiourea, as potential positron emission tomography tracers” (J Med Chem, 1996):

What was measured:
Nitric oxide synthase 3 = target: T1, Nitric oxide synthase 3 (Homo sapiens, UniProt P29474); experiment: The compound was evaluated for the inhibitory potencies using human Endothelial nitric oxide synthase
T1 sequence (P29474 whole entry): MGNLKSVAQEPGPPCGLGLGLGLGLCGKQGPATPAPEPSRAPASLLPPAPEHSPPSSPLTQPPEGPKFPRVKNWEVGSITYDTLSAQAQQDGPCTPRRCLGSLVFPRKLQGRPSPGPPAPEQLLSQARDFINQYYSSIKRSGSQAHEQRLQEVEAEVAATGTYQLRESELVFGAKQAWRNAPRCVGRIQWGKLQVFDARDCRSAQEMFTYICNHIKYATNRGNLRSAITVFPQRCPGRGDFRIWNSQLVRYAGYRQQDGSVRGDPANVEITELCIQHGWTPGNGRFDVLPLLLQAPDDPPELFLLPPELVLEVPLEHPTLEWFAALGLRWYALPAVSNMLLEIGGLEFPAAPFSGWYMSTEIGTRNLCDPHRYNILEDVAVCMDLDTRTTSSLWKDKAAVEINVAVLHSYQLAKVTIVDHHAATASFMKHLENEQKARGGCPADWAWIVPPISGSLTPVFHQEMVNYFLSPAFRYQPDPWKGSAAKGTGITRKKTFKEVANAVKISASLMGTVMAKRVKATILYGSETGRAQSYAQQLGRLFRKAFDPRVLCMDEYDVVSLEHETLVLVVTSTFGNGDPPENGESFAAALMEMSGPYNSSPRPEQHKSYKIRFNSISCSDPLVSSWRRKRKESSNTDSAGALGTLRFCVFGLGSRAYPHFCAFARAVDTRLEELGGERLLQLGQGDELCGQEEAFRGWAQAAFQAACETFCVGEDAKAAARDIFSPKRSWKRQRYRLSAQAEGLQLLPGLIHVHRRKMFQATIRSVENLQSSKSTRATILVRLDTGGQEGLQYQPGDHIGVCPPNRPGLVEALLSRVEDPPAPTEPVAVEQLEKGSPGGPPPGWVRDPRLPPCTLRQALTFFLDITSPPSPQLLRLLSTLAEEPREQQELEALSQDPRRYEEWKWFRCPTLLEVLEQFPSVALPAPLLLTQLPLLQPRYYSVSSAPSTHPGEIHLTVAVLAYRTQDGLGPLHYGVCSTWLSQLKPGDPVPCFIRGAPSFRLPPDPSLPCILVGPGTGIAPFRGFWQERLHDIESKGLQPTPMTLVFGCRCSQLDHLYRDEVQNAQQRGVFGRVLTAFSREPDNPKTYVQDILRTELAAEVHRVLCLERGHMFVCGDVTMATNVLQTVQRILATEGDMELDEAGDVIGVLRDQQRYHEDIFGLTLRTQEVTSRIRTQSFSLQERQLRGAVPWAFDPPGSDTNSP

[1] = target: Nitric oxide synthase, inducible (Homo sapiens, UniProt P35228); experiment: The compound was evaluated for the inhibitory potencies using human Inducible nitric oxide synthase (hiNOS)
Sequence of Nitric oxide synthase, inducible (Homo sapiens, UniProt P35228) (P35228 whole entry): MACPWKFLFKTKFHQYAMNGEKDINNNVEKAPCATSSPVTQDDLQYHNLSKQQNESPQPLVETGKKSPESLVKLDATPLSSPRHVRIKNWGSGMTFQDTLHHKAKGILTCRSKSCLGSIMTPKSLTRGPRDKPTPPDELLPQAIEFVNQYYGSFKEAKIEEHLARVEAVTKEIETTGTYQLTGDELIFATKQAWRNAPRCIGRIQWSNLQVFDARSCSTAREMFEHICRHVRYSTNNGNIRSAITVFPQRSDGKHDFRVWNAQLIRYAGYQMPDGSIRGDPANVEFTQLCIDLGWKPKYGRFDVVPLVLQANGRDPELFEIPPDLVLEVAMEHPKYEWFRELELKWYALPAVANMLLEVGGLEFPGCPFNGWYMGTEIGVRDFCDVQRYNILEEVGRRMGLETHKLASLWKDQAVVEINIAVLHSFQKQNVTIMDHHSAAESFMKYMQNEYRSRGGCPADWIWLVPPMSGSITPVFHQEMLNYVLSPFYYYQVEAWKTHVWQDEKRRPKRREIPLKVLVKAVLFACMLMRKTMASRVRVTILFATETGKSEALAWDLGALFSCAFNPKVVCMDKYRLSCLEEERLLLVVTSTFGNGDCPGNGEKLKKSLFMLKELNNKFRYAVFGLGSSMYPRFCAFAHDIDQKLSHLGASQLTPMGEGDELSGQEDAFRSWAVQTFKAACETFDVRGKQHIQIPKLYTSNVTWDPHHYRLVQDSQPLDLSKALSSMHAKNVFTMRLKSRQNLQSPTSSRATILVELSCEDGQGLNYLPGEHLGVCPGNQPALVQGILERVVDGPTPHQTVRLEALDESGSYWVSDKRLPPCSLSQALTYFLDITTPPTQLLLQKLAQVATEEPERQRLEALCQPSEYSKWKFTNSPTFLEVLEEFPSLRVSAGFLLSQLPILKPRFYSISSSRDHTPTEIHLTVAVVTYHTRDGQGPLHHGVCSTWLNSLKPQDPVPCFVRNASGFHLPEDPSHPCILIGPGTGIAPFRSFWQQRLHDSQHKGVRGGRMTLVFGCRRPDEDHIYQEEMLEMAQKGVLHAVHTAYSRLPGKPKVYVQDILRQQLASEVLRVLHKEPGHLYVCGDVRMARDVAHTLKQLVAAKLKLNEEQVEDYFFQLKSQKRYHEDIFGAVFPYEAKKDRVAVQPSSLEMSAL

[2] = target: T2, Nitric oxide synthase, inducible (Mus musculus, UniProt P29477); experiment: Binding affinity against mouse Inducible nitric oxide synthase (iNOS)
T2 sequence (P29477 whole entry): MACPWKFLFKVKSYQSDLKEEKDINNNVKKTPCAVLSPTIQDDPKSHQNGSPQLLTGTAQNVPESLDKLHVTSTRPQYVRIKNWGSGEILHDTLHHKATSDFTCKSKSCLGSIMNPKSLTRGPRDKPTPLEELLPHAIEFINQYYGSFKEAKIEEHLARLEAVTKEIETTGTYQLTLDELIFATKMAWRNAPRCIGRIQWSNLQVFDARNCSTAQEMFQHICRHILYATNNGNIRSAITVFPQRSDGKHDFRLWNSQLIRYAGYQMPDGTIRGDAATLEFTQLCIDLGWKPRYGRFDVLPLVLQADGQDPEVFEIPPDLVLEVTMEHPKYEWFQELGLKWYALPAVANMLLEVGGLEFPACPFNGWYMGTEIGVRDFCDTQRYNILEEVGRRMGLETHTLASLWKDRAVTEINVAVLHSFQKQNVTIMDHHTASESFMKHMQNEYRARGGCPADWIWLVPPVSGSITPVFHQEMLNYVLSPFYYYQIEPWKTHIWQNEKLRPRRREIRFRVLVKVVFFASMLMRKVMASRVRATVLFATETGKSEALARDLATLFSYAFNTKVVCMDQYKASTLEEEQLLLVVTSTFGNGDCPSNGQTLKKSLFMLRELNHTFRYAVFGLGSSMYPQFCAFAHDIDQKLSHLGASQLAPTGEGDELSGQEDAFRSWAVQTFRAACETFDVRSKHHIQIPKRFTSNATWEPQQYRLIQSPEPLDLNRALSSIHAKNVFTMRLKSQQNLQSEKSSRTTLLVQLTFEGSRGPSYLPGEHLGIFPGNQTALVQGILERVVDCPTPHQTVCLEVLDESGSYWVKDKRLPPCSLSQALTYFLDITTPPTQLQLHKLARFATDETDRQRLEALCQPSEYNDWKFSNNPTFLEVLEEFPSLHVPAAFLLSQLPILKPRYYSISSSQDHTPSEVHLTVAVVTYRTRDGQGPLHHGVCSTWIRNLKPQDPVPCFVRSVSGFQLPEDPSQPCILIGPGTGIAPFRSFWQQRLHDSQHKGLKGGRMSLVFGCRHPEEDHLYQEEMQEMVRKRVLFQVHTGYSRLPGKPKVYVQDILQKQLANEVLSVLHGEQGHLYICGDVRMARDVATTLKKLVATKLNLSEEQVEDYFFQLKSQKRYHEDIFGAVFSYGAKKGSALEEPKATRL

Rattus norvegicus = species on record: Rattus norvegicus; experiment: Maximum enzyme concentration from lipopolysaccharide treated rat liver.; format: functional

| SMILES | IC50 (Nitric oxide synthase 3) | IC50 [1] | Ki [2] | Bmax (Rattus norvegicus) |
| --- | --- | --- | --- | --- |
| CSC(=N)N | 7000 nM | 3000 nM | – | – |
| CCSC(=N)N [ETHYLISOTHIOUREA] | 1300 nM | 160 nM | 5.2 nM | 85 nM |
